Assay results from BigSolDB 2.1.

CC(C)[C@H](N)C(=O)O
Details | solubility (mole fraction)
in DMF, 293.15 K | 1.25e-06
in DMF, 303.25 K | 2.49e-06
in DMF, 313.25 K | 4.36e-06
in DMF, 323.15 K | 7.48e-06
in DMF, 333.25 K | 1.06e-05
in DMF, 343.25 K | 1.49e-05
in acetone, 293.15 K | 4.96e-07
in acetone, 302.95 K | 9.91e-07
in acetone, 313.35 K | 1.98e-06
in acetone, 323.35 K | 2.97e-06
in acetone, 328.15 K | 3.97e-06
in ethanol, 293.15 K | 1.18e-05
in ethanol, 303.75 K | 2.36e-05
in ethanol, 313.15 K | 3.69e-05
in ethanol, 323.15 K | 5.34e-05
in ethanol, 333.25 K | 7.62e-05
in ethanol, 343.25 K | 0.000109
in isopropanol, 293.45 K | 2.56e-06
in isopropanol, 303.05 K | 4.61e-06
in isopropanol, 313.35 K | 7.17e-06
in isopropanol, 323.25 K | 1.08e-05
in isopropanol, 333.05 K | 1.54e-05
in isopropanol, 343.35 K | 2.1e-05
in water, 293.55 K | 0.00884
in water, 303.05 K | 0.00938
in water, 313.15 K | 0.0101
in water, 323.05 K | 0.0109
in water, 333.25 K | 0.0117
in water, 343.15 K | 0.0129
